Here are results for 2 molecules from BindingDB's records for patent US11834430 (Agency For Science, Technology and Research, 2023).

This assay addresses Protein-S-isoprenylcysteine O-methyltransferase (Homo sapiens, UniProt O60725). Put plainly: ICMT Biochemical Assay. As for the experimental part: An ICMT enzymatic assay was developed using Promega's Methyltransferase-GloTMreagents. In the assay, ICMT catalyzes the methylation of the N-Acetyl-S-farnesyl-L-cysteine by transferring a methyl group from SAM to the farnesylated cysteine and further converts the SAM to SAH. The methyltransferase activity is measured based on the amount of SAH produced from the reaction through the use of coupling enzymes that convert the SAH to ATP. […] A final concentration of 2.0 μM and 20 μM of SAM and peptide were added and further incubated for 90 minutes at room temperature before adding the MTase Glo and detection reagent. Reaction signals were detected using microplate readers on luminescent mode (Satire Tecan).

Chain of Protein-S-isoprenylcysteine O-methyltransferase (O60725 whole entry): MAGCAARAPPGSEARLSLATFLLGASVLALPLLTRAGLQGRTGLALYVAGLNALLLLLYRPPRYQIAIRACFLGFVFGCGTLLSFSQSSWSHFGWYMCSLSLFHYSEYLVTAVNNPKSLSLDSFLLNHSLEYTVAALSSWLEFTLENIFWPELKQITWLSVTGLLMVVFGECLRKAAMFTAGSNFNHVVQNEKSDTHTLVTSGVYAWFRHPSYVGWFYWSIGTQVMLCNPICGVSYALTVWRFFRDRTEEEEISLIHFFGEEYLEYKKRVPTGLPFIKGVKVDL

Usually IC50 stands for the midpoint of a concentration-inhibition curve. The low end stands for inhibition by little substance, the high end for a need for much substance. For the molecule `COc1cc(Cl)ccc1OCCOc1cccc(-n2ccnc2C)c1` [US11834430, Compound 45], the IC50 was found to be 76 nM.

The molecule `N#Cc1ccc(OCCOc2ccc(F)c(-c3ccnn3C3CC3)c2)c(F)c1` [US11834430, Compound 88] returned an IC50 of 18 nM.
